# Measured values from US20230085307A1, “PYRIDAZINONE COMPOUND AND HERBICIDE” (NISSAN CHEMICAL CORPORATION, priority 2019, published 2023).
# Columns and labels:
# chickweed [1] = experiment: Test Example 4: herbicidal effect by soil treatment (Table 19, symbol P); type: in vivo, common chickweed (Stellaria media)
# Method in brief: (§1)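 Herbicidal effect was rated 3 weeks after treatment, using the scoring criteria of an earlier test. The compound, formulated as an emulsion and diluted in water to a set herbicide amount, had been sprayed uniformly on soil over freshly sown seeds. Growth took place in a greenhouse at 25° C. to 30° C.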
# wild oat [2] = experiment: Test Example 4: herbicidal effect by soil treatment (Table 19, symbol I); type: in vivo, wild oat (Avena fatua)
# Method in brief: as §1
# persian speedwell [3] = experiment: Test Example 4: herbicidal effect by soil treatment (Table 19, symbol R); type: in vivo, Persian speedwell (Veronica persica)
# Method in brief: as §1
# blackgrass [4] = experiment: Test Example 5: herbicidal effect by foliage application, plastic box (Table 20, symbol J); type: in vivo, blackgrass (Alopecurus myosuroides); conditions: foliage application, 320 g/ha, evaluated three weeks after application
# Method in brief: (§2)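 Foliar spray test: emulsion formulation diluted in water to a set application rate, sprayed onto 14-day-old plants raised in diluvial soil at 25° C to 30° C under glass. Both herbicidal effect and crop effect rated visually three weeks later.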
# southern crabgrass [5] = experiment: Test Example 4: herbicidal effect by soil treatment (Table 19, symbol F); type: in vivo, southern crabgrass (Digitaria ciliaris)
# Method in brief: as §1
# lambsquarters [6] = experiment: Test Example 4: herbicidal effect by soil treatment (Table 19, symbol O); type: in vivo, lambsquarters (Chenopodium album)
# Method in brief: as §1
# velvetleaf [7] = experiment: Test Example 5: herbicidal effect by foliage application, plastic box (Table 20, symbol M); type: in vivo, velvetleaf (Abutilon theophrasti); conditions: foliage application, 320 g/ha, evaluated three weeks after application
# Method in brief: as §2
# blackgrass [8] = experiment: Test Example 4: herbicidal effect by soil treatment (Table 19, symbol J); type: in vivo, blackgrass (Alopecurus myosuroides)
# Method in brief: as §1
# barnyard grass [9] = experiment: Test Example 5: herbicidal effect by foliage application, plastic box (Table 20, symbol H); type: in vivo, barnyard grass (Echinochloa crus-galli); conditions: foliage application, 320 g/ha, evaluated three weeks after application
# Method in brief: as §2
# chickweed [10] = experiment: Test Example 5: herbicidal effect by foliage application, plastic box (Table 20, symbol P); type: in vivo, common chickweed (Stellaria media); conditions: foliage application, 320 g/ha, evaluated three weeks after application
# Method in brief: as §2
# southern crabgrass [11] = experiment: Test Example 5: herbicidal effect by foliage application, plastic box (Table 20, symbol F); type: in vivo, southern crabgrass (Digitaria ciliaris); conditions: foliage application, 320 g/ha, evaluated three weeks after application
# Method in brief: as §2
# barnyard grass [12] = experiment: Test Example 4: herbicidal effect by soil treatment (Table 19, symbol H); type: in vivo, barnyard grass (Echinochloa crus-galli)
# Method in brief: as §1
# wild oat [13] = experiment: Test Example 5: herbicidal effect by foliage application, plastic box (Table 20, symbol I); type: in vivo, wild oat (Avena fatua); conditions: foliage application, 320 g/ha, evaluated three weeks after application
# Method in brief: as §2
# Italian ryegrass [14] = experiment: Test Example 5: herbicidal effect by foliage application, plastic box (Table 20, symbol K); type: in vivo, Italian ryegrass (Lolium multiflorum); conditions: foliage application, 320 g/ha, evaluated three weeks after application
# Method in brief: as §2
# lambsquarters [15] = experiment: Test Example 5: herbicidal effect by foliage application, plastic box (Table 20, symbol O); type: in vivo, lambsquarters (Chenopodium album); conditions: foliage application, 320 g/ha, evaluated three weeks after application
# Method in brief: as §2
# windgrass [16] = experiment: Test Example 4: herbicidal effect by soil treatment (Table 19, symbol L); type: in vivo, windgrass (Apera spica-venti)
# Method in brief: as §1
# persian speedwell [17] = experiment: Test Example 5: herbicidal effect by foliage application, plastic box (Table 20, symbol R); type: in vivo, Persian speedwell (Veronica persica); conditions: foliage application, 320 g/ha, evaluated three weeks after application
# Method in brief: as §2
# green foxtail [18] = experiment: Test Example 5: herbicidal effect by foliage application, plastic box (Table 20, symbol G); type: in vivo, green foxtail (Setaria viridis); conditions: foliage application, 320 g/ha, evaluated three weeks after application
# Method in brief: as §2
# barnyard grass [19] = experiment: Test Example 3: herbicidal effect by foliage application, Wagner pot (Table 18, symbol H); type: in vivo, barnyard grass (Echinochloa crus-galli)
# Method in brief: (§3)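 Plants were sown in alluvial soil held under 0.1–0.5 cm standing water and grown 14 days in a greenhouse at 25–30 °C. An emulsifiable formulation, water-diluted to the set dose, was then sprayed onto the foliage, and effects were scored three weeks later using previously defined criteria.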
# redroot pigweed [20] = experiment: Test Example 4: herbicidal effect by soil treatment (Table 19, symbol N); type: in vivo, redroot pigweed (Amaranthus retroflexus)
# Method in brief: as §1
# Italian ryegrass [21] = experiment: Test Example 4: herbicidal effect by soil treatment (Table 19, symbol K); type: in vivo, Italian ryegrass (Lolium multiflorum)
# Method in brief: as §1
# windgrass [22] = experiment: Test Example 5: herbicidal effect by foliage application, plastic box (Table 20, symbol L); type: in vivo, windgrass (Apera spica-venti); conditions: foliage application, 320 g/ha, evaluated three weeks after application
# Method in brief: as §2
# velvetleaf [23] = experiment: Test Example 4: herbicidal effect by soil treatment (Table 19, symbol M); type: in vivo, velvetleaf (Abutilon theophrasti)
# Method in brief: as §1
# Chinese sprangletop = experiment: Test Example 3: herbicidal effect by foliage application, Wagner pot (Table 18, symbol D); type: in vivo, chinese sprangletop (Leptochloa chinensis)
# Method in brief: as §3
# redroot pigweed [24] = experiment: Test Example 5: herbicidal effect by foliage application, plastic box (Table 20, symbol N); type: in vivo, redroot pigweed (Amaranthus retroflexus); conditions: foliage application, 320 g/ha, evaluated three weeks after application
# Method in brief: as §2
# green foxtail [25] = experiment: Test Example 4: herbicidal effect by soil treatment (Table 19, symbol G); type: in vivo, green foxtail (Setaria viridis)
# Method in brief: as §1
# rice flat sedge = experiment: Test Example 3: herbicidal effect by foliage application, Wagner pot (Table 18, symbol E); type: in vivo, rice flat sedge (Cyperus iria)
# Method in brief: as §3
# [26] = amount of applied herbicide 320 g/ha
smiles,measurement,setting,value
C#CCOc1ccc(-c2sc3ccc(F)cc3c2-c2c(OCC#C)c(C)nn(C)c2=O)cc1 [2-054],"herbicidal effect rating, P: chickweed",chickweed [1]; 320 g/ha,0 (Herbicidal rate of 5% or less (almost no effect))
same,"herbicidal effect rating, I: wild oat",wild oat [2]; 320 g/ha,0 (Herbicidal rate of 5% or less (almost no effect))
same,"herbicidal effect rating, R: persian speedwell",persian speedwell [3]; 320 g/ha,3 (Herbicidal rate of 40% or more and less than 70%)
same,herbicidal effect on J: blackgrass,blackgrass [4],0 (Herbicidal rate of 5% or less (almost no effect))
same,"herbicidal effect rating, F: southern crabgrass",southern crabgrass [5]; 320 g/ha,0 (Herbicidal rate of 5% or less (almost no effect))
same,"herbicidal effect rating, O: lambsquarters",lambsquarters [6]; 320 g/ha,0 (Herbicidal rate of 5% or less (almost no effect))
same,herbicidal effect on M: velvetleaf,velvetleaf [7],4 (Herbicidal rate of 70% or more and less than 90%)
same,"herbicidal effect rating, J: blackgrass",blackgrass [8]; 320 g/ha,0 (Herbicidal rate of 5% or less (almost no effect))
same,herbicidal effect on H: barnyard grass,barnyard grass [9],3 (Herbicidal rate of 40% or more and less than 70%)
same,herbicidal effect on P: chickweed,chickweed [10],5 (Herbicidal rate of 90% or more (almost completely withered))
same,herbicidal effect on F: southern crabgrass,southern crabgrass [11],0 (Herbicidal rate of 5% or less (almost no effect))
same,"herbicidal effect rating, H: barnyard grass",barnyard grass [12]; 320 g/ha,0 (Herbicidal rate of 5% or less (almost no effect))
same,herbicidal effect on I: wild oat,wild oat [13],0 (Herbicidal rate of 5% or less (almost no effect))
same,herbicidal effect on K: Italian ryegrass,Italian ryegrass [14],0 (Herbicidal rate of 5% or less (almost no effect))
same,herbicidal effect on O: lambsquarters,lambsquarters [15],3 (Herbicidal rate of 40% or more and less than 70%)
same,"herbicidal effect rating, L: windgrass",windgrass [16]; 320 g/ha,0 (Herbicidal rate of 5% or less (almost no effect))
same,herbicidal effect on R: persian speedwell,persian speedwell [17],5 (Herbicidal rate of 90% or more (almost completely withered))
same,herbicidal effect on G: green foxtail,green foxtail [18],3 (Herbicidal rate of 40% or more and less than 70%)
same,"herbicidal effect on H (barnyard grass), rating 0-5",barnyard grass [19]; 320 g/ha,4 (Herbicidal rate of 70% or more and less than 90%)
same,"herbicidal effect rating, N: redroot pigweed",redroot pigweed [20]; 320 g/ha,3 (Herbicidal rate of 40% or more and less than 70%)
same,"herbicidal effect rating, K: Italian ryegrass",Italian ryegrass [21]; 320 g/ha,0 (Herbicidal rate of 5% or less (almost no effect))
same,herbicidal effect on L: windgrass,windgrass [22],0 (Herbicidal rate of 5% or less (almost no effect))
same,"herbicidal effect rating, M: velvetleaf",velvetleaf [23]; 320 g/ha,0 (Herbicidal rate of 5% or less (almost no effect))
same,"herbicidal effect on D (Chinese sprangletop), rating 0-5",Chinese sprangletop; 320 g/ha,5 (Herbicidal rate of 90% or more (almost completely withered))
same,herbicidal effect on N: redroot pigweed,redroot pigweed [24],4 (Herbicidal rate of 70% or more and less than 90%)
same,"herbicidal effect rating, G: green foxtail",green foxtail [25]; 320 g/ha,0 (Herbicidal rate of 5% or less (almost no effect))
same,"herbicidal effect on E (rice flat sedge), rating 0-5",rice flat sedge; 320 g/ha,3 (Herbicidal rate of 40% or more and less than 70%)
Cc1ccc2sc(-c3ccc(F)cc3)c(-c3c(O)c(C)nn(C)c3=O)c2c1 [2-134],"P: chickweed, herbicidal effect rating",chickweed [1]; [26],4 (Herbicidal rate of 70% or more and less than 90%)
same,"I: wild oat, herbicidal effect rating",wild oat [2]; [26],0 (Herbicidal rate of 5% or less (almost no effect))
same,"R: persian speedwell, herbicidal effect rating",persian speedwell [3]; [26],4 (Herbicidal rate of 70% or more and less than 90%)
same,herbicidal effect on J: blackgrass,blackgrass [4],0 (Herbicidal rate of 5% or less (almost no effect))
same,"F: southern crabgrass, herbicidal effect rating",southern crabgrass [5]; [26],2 (Herbicidal rate of 20% or more and less than 40%)
same,"O: lambsquarters, herbicidal effect rating",lambsquarters [6]; [26],5 (Herbicidal rate of 90% or more (almost completely withered))
same,herbicidal effect on M: velvetleaf,velvetleaf [7],5 (Herbicidal rate of 90% or more (almost completely withered))
same,"J: blackgrass, herbicidal effect rating",blackgrass [8]; [26],0 (Herbicidal rate of 5% or less (almost no effect))
same,herbicidal effect on H: barnyard grass,barnyard grass [9],0 (Herbicidal rate of 5% or less (almost no effect))
same,herbicidal effect on P: chickweed,chickweed [10],5 (Herbicidal rate of 90% or more (almost completely withered))
same,herbicidal effect on F: southern crabgrass,southern crabgrass [11],0 (Herbicidal rate of 5% or less (almost no effect))
same,"H: barnyard grass, herbicidal effect rating",barnyard grass [12]; [26],0 (Herbicidal rate of 5% or less (almost no effect))
same,herbicidal effect on I: wild oat,wild oat [13],0 (Herbicidal rate of 5% or less (almost no effect))
same,herbicidal effect on K: Italian ryegrass,Italian ryegrass [14],3 (Herbicidal rate of 40% or more and less than 70%)
same,herbicidal effect on O: lambsquarters,lambsquarters [15],4 (Herbicidal rate of 70% or more and less than 90%)
same,"L: windgrass, herbicidal effect rating",windgrass [16]; [26],0 (Herbicidal rate of 5% or less (almost no effect))
same,herbicidal effect on R: persian speedwell,persian speedwell [17],5 (Herbicidal rate of 90% or more (almost completely withered))
same,herbicidal effect on G: green foxtail,green foxtail [18],0 (Herbicidal rate of 5% or less (almost no effect))
same,herbicidal effect on H: barnyard grass,barnyard grass [19]; [26],3 (Herbicidal rate of 40% or more and less than 70%)
same,"N: redroot pigweed, herbicidal effect rating",redroot pigweed [20]; [26],5 (Herbicidal rate of 90% or more (almost completely withered))
same,"K: Italian ryegrass, herbicidal effect rating",Italian ryegrass [21]; [26],0 (Herbicidal rate of 5% or less (almost no effect))
same,herbicidal effect on L: windgrass,windgrass [22],0 (Herbicidal rate of 5% or less (almost no effect))
same,"M: velvetleaf, herbicidal effect rating",velvetleaf [23]; [26],0 (Herbicidal rate of 5% or less (almost no effect))
same,herbicidal effect on D: Chinese sprangletop,Chinese sprangletop; [26],0 (Herbicidal rate of 5% or less (almost no effect))
same,herbicidal effect on N: redroot pigweed,redroot pigweed [24],5 (Herbicidal rate of 90% or more (almost completely withered))
same,"G: green foxtail, herbicidal effect rating",green foxtail [25]; [26],0 (Herbicidal rate of 5% or less (almost no effect))
same,herbicidal effect on E: rice flat sedge,rice flat sedge; [26],5 (Herbicidal rate of 90% or more (almost completely withered))
